From US20220184008A1, “MODULATORS OF INTRACELLULAR CHLORIDE CONCENTRATION” (FONDAZIONE ISTITUTO ITALIANO DI TECNOLOGIA, priority 2019, published 2022)

Experiments:
NKCC1 [1] = target: T1, NKCC1 (Homo sapiens, UniProt P55011); assay: Chloride kinetic assay (Cl-sensitive YFP) in NKCC1-transfected HEK293 cells; assay type: cell-based; details: 10 μM; NKCC1-transfected HEK293; Table 1; read-out: NKCC1 Inhibition % 10 μM HEK Chloride YFP assay
T1 construct: expressed in transfected cells; host or cells: HEK293
T1 sequence (P55011 1-1212): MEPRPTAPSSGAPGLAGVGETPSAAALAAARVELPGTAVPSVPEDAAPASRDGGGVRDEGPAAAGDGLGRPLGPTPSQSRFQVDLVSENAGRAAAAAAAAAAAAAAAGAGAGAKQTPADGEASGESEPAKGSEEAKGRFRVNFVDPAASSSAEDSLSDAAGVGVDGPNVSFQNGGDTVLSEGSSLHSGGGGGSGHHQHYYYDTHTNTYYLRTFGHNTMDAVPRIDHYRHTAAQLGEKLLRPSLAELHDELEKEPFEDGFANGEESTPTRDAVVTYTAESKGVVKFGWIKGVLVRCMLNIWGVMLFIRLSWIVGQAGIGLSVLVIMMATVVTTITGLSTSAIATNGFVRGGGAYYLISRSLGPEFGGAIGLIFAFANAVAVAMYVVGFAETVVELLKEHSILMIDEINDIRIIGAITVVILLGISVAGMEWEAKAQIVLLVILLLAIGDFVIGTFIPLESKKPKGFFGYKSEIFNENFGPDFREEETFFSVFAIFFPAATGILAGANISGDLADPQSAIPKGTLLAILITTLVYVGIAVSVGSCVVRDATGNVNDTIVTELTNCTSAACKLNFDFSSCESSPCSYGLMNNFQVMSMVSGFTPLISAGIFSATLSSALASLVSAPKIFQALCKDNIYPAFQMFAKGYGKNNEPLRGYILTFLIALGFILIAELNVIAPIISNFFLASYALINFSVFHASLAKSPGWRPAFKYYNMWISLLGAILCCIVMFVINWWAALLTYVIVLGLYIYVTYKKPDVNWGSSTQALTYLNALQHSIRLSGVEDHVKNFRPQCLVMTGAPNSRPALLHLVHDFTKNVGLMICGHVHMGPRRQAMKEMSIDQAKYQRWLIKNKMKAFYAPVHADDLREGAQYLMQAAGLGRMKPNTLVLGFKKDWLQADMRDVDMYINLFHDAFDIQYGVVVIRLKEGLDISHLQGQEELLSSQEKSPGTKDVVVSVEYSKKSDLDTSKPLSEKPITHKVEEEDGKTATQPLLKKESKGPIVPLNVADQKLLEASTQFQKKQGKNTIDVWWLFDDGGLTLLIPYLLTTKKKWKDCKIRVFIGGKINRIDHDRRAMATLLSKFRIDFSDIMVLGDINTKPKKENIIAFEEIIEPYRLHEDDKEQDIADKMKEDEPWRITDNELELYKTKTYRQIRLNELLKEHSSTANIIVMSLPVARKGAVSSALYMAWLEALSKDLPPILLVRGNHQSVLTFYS
Method: FIG. 1: In vitro testing of the NKCC1 inhibitors in the chloride kinetic assay a) Example traces obtained in the chloride kinetic assay on HEK cells transfected with the YFP (mock) or with YFP and NKCC1. The arrow indicates the addition of NaCl (final concentration 74 mM) used to initiate the flux assay. b) Quantification of the effect of bumetanide (10 μM and 100 μM) or furosemide (10 μM and 100 μM) in the chloride kinetic assay on mock or NKCC1-transfected HEK293 cells. Data represents mean±sem from 5 independent experiments. c) Quantification of the effect of bumetanide and furosemide and 2 selected compounds (3.8, 3.17) in the chloride kinetic assay on NKCC1-transfected HEK293 cells. Data represents mean±sem from 5 independent experiments, and they are represented as % of the controls. *P<0.05, **P<0.01, ***P<0.001 Kruskal-Wallis Anova (Dunn's Post hoc Test); ###P<0.001 two-tailed unpaired Student t-test.
To screen in vitro the compounds efficiency in blocking NKCC1, a functional NKCC1 transporter assay was performed by measuring variation of Cl^− ion concentration in the cell through a Cl^− sensitive membrane-tagged yellow fluorescent protein (mbYFPQS, Addgene). mbYFPQS fluorescence is inversely dependent on the concentration of Cl^− inside the cell thus allowing an indirect estimation of the Cl^− transporter activity. In particular, HEK293 cells were transfected with NKCC1 or mock construct (control) together with the Cl^− sensitive YFP. After 2 DIV, the cells were treated with bumetanide and furosemide (as positive controls) or with each of the tested compounds of the invention in a Cl^− free medium. After 30 min, the inhibitory activity of the compounds was tested by monitoring fluorescence upon application of NaCl (FIG. 1a). Transported by NKCC1, Cl binds the YFP, leading to a fluorescence decrease. […] With the Cl kinetic assay, the NKCC1 inhibitory activity of the selected compounds was tested (FIG. 1c).

NKCC1 [2] = assay: Calcium kinetic assay in primary cultures of immature hippocampal neurons; assay type: cell-based; details: 10 μM, immature neurons 3 DIV
Method: FIG. 2: In vitro testing of the NKCC1 inhibitors in a calcium kinetic assay. a) Example traces of fluorescence levels upon application of GABA (100 μM) and KCl (90 mM) used to trigger calcium influx in primary neuronal cultures treated after 3 days in culture (3 DIV) with vehicle, bumetanide, furosemide and compounds 3.8, 3.13 and 3.17 in the calcium kinetic assay. b) Quantification of the average fluorescence increase upon GABA application normalized to the increase upon KCl application in neurons treated with bumetanide, furosemide and 3 exemplary compounds (3.8, 3.13, 3.17) (10 μM, 100 μM). Data represents mean±sem from 5 independent experiments, and they are presented as % of the control. *P<0.05, **P<0.01, ***P<0.001 Kruskal-Wallis Anova (Dunn's Post hoc Test).
Next, the compounds of the invention were tested for their ability to revert the depolarizing GABAergic signaling in immature neurons. This effect was indirectly measured as calcium influx into the cells with an in vitro calcium kinetic assay in primary cultures of hippocampal neurons. The calcium kinetic assay exploits the physiological, endogenous, high expression of NKCC1 in immature neurons, which causes depolarizing actions of GABA and can activate voltage-gated Ca^2+ channels. Thus, in immature neurons, a compound that blocks NKCC1 is predicted to inhibit Ca^2+ responses upon GABA application. Immature neurons were cultured for 3 days in vitro (3 DIV) and loaded for 15 min with a calcium-sensitive dye (Fluo4). Then, the neurons were treated with bumetanide and furosemide (as positive controls) or with each of the selected compounds for 15 min. As a functional readout, the fluorescence level was monitored in these cultures before and after application of GABA (100 μM, for 20 sec). To test for neuronal viability at the end of the experiment, KCl was applied (90 mM, for 40 sec), which strongly depolarizes neurons, causing high activation of voltage-gated Ca^2+ channels in live cells. To quantify how bumetanide, furosemide, and selected compounds influenced NKCC1 inhibition, the fluorescence values were normalized upon GABA application to the fluorescence levels upon KCl application in treated neurons.

In the case of O=C(O)c1ccc(NCCCCCCCC(F)(F)F)c(S(=O)(=O)NC2CCCCC2)c1 [Compound 3.22, 3-(cyclohexylsulfamoyl)-4-(8,8,8-trifluorooctylamino) benzoic acid], the inhibition at 10 µM (NKCC1 [1]) is reported as 4%, the “NKCC1 Inhibition % 10 μM Neurons Calcium kinetic assay” value (NKCC1 [2]; Table 1) is reported as 54% and the “NKCC1 Inhibition % 10 μM Neurons Calcium kinetic assay” value (NKCC1 [2]; Table 2) is reported as 54%.
